From patent US5696112A, “Fused heterocyclic azepines as vasopressin antagonists” (American Cyanamid Company, priority 1995, dated 1997)

Tests used:
[1] = target: T1, Rat Kidney Medullary V2 Receptors (vasopressin V2) (Rattus norvegicus, UniProt Q00788); test: Binding Assay to Rat Kidney Medullary V2 Receptors; details: rat kidney medullary V2, [3H]Arg8-vasopressin
T1 construct: Medullary tissues from rat kidneys are dissected out; from tissue; host or cells: rat kidney medulla membranes
Protocol: Binding Assay to Rat Kidney Medullary V2 Receptors
Medullary tissues from rat kidneys are dissected out, cut into small pieces and let soak in a […] sodium chloride solution containing 1.0 mM EDTA with many changes of the liquid phase, until the solution is clear of blood. The tissue is homogenized in a 0.25M sucrose solution containing 1.0 mM EDTA and 0.1 mM PMSF using a Potter-Elvehjem homogenizer with a teflon pestle. The homogenate is filtered through several layers (4 layers) of cheese cloth. The filtrate is rehomogenized using a dounce homogenizer, with a tight fitting pestle. The final homogenate is contrifuged at 1500×g for 15 min. The nuclear pellet is discarded and the supernatant fluid recentrifuged at 40,000×g for 30 min. The resulting pellet formed contains a dark inner part with the exterior, slightly pink. The pink outer part is suspended in a small amount of 50.0 mMTris.HCl buffer, pH 7.4. The protein content is determined by the Lowry's method (Lowry et al, J. Biol. Chem., 1953). The membrane suspension is stored at -70° C., in 50.0 mMTris.HCl, containing 0.2% inactivated BSA and 0.1 mM PMSF in aliquots of 1.0 ml containing 10.0 mg protein per ml of suspension until use in subsequent binding experiments.
For binding experiments, the following is added in μl volume to wells of a 96 well format of a microtiter plate: 100.0 μl of 100.0 mM Tris.HCl buffer containing 0.2% heat inactivated BSA, 10.0 mM MgCl2 and a mixture of protease inhibitors: leupeptin, 1.0 mg %; aprotinin, 1.0 mg %; 1,10-phenanthroline, 2.0 mg %; trypsin inhibitor, 10.0 mg % and 0.1 mM PMSF, 20.0 μl of [^3 H]Arginine^8, vasopressin (S.A. 75.0 Ci/mmole) at 0.8 nM and the reaction initiated by the addition of 80.0 μl of tissue membranes (200.0 μg tissue protein). The plates are left undisturbed on the bench top for 120 min. to reach equilibrium. Non-specific binding is assessed in the presence of 1.0 μM of unlabeled ligand, added in 20 μl volume. For test compounds, these are solubilized in 50% dimethylsulfoxide (DMSO) and added in 20.0 μl volume to a final incubation volume of 200 μl. Upon completion of binding, the content of each well is filtered off, using a Brandel® cell Harvester (Gaithersburg, Md.). The radioactivity trapped on the filter disk by the ligand-receptor complex is assessed by liquid scintillation counting in a Packard LS Counter, with an efficiency of 65% for tritium. The data are analyzed for IC50 values by the LUNDON-2 program for competition (LUNDON SOFTWARE, OH).

[2] = target: T2, Vasopressin V1 Receptor Subtype in Human Platelet Membranes (Homo sapiens, UniProt P37288); test: Binding to V1 Receptor Subtype in Human Platelet membranes
T2 construct: tissue Hudson Valley Blood Services, Westchester Medical Center, Valhalla, N.Y; host or cells: human platelet membranes from frozen platelet rich plasma
T2 sequence (P37288 whole entry): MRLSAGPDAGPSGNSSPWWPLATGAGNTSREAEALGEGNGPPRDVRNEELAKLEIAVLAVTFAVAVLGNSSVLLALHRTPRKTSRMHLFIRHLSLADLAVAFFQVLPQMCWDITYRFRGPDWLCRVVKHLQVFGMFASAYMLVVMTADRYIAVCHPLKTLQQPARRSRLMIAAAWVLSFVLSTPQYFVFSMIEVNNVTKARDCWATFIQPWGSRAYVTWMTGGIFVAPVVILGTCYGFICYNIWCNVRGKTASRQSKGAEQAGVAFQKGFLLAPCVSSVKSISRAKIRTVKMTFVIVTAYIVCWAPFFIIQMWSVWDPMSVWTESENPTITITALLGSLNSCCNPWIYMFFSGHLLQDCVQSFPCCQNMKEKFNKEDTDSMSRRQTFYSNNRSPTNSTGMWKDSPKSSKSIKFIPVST
Protocol: Radioligand Binding Experiments with Human Platelet Membranes
Platelet Source: Hudson Valley Blood Services, Westchester Medical Center, Valhalla, N.Y.
Platelet Membrane Preparation:
Frozen platelet rich plasma (PRP), received from the Hudson Valley Blood Services are thawed to room temperature. The tubes containing the PRP are centrifuged at 16,000×g for 10 min. at 4° C. and the supernatant fluid discarded. The platelets resuspended in an equal volume of 50.0 mMTris.HCl, pH 7.5 containing 120 mM NaCl and 20.0 mM EDTA. The suspension is recentrifuged at 16,000×g for 10 min. This washing step is repeated one more time. The wash is discarded and the lysed pellets homogenized in low ionic strength buffer of Tris.HCl, 5.0 mM, pH 7.5 containing 5.0 mM EDTA. The homogenate is centrifuged at 39,000×g for 10 min. The resulting pellet is resuspended in Tris.HCl buffer, 70.0 mM, pH 7.5 and recentrifuged at 39,000×g for 10 min. The final pellet is resuspended in 50.0 mM Tris.HCl buffer pH 7.4 containing 120 mM NaCl and 5.0 mM HCl to give 1.0-2.0 mg protein per ml of suspension.
Binding to Vasopressin V1 Receptor Subtype in Human Platelet Membranes:
In wells of a 96 well format microtiter plate, add 100 μl of 50.0 mM Tris.HCl buffer containing 0.2% BSA and a mixture of protease inhibitors (aprotinin, leupeptin etc.). Then add 20 μl of [^3 H]Ligand: (Manning or Arg^8 Vasopressin), to give final concentrations ranging from 0.01 to 10.0 nM. Initiate the binding by adding 80.0 μl of platelet suspension (approx. 100 μg protein). Mix all reagents by pipetting the mixture up and down a few times. Non-specific binding is measured in the presence of 1.0 μM of unlabeled ligand (Manning or Arg^8 Vasopressin). Let the mixture stand undisturbed at room temperature for ninety (90) min. Upon this time, rapidly filter off the incubate under vacuum suction over GF/B filters, using a Brandel® Harvester. Determine the radioactivity caught on the filter disks by the addition of liquid scintillant and counting in a liquid scintillator

oxytocin receptors = target: T3, oxytocin receptors (Rattus norvegicus, UniProt P70536); test: Oxytocin Receptor Binding; design: species or system Sprague-Dawley rats; details: 10 μM
T3 construct: The uteri are dissected out, cleaned of fat and connective tissues; from tissue; host or cells: uterus membranes of DES-treated female Sprague-Dawley rats
T3 sequence (P70536 1-388): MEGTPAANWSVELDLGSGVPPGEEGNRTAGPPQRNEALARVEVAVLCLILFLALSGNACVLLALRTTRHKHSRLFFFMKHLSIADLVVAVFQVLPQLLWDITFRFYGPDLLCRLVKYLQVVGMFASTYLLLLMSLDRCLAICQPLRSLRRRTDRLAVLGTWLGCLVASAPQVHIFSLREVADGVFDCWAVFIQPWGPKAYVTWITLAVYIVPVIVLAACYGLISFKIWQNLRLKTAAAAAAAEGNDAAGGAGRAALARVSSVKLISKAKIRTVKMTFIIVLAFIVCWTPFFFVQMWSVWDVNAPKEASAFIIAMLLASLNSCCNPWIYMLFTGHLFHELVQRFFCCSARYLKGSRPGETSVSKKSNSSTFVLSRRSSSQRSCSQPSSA
Protocol: Oxytocin Receptor Binding
Female Sprague-Dawley rats weighing approximately 200-250 g are injected intramuscularly (i.m.) with 0.3 mg/kg of body weight of diethylstilbestrol (DES). The rats are sacrificed 18 hours later under pentobarbital anesthesia. The uteri are dissected out, cleaned of fat and connective tissues and rinsed in 50 ml of normal saline. The tissue pooled from six rats is homogenized in 50 ml of 0.01 mMTris.HCl, containing 0.5 mM dithiothreitol and 1.0 mM EDTA, adjusted to pH 7.4, using a polytron at setting 6 with three passes of 10 sec each. The homogenate is passed through two (2) layers of cheesecloth and the filtrate centrifuged at 1000×g for 10 min. The clear supernatant is removed and recentrifuged at 165,000×g for 30 min. The resulting pellet containing the oxytocin receptors is resuspended in 50.0 mM Tris.HCl containing 5.0 mM MgCl2 at pH 7.4, to give a protein concentration of 2.5 mg/ml of tissue suspension. This preparation is used in subsequent binding assays with [^3 H]Oxytocin.
Binding of 3,5-[^3 H]Oxytocin ([^3 H]OT) to its receptors is done in microtiter plates using [^3 H]OT, at various concentrations, in an assay buffer of 50.0 mM Tris.HCl, pH 7.4 and containing 5.0 mM MgCl2, and a mixture of protease inhibitors: BSA, 0.1 mg; aprotinin, 1.0 mg; 1,10-phenanthroline, 2.0 mg; […], 10.0 mg; and PMSF, 0.3 mg per 100 ml of buffer solution. Nonspecific binding is determined in the presence of 1.0 uM unlabeled OT. The binding reaction is terminated after 60 min., at 22° C., by rapid filtration through glass fiber filters using a Brandel® cell harvester (Biomedical Research and Development Laboratories, Inc., Gaithersburg, Md.). Competition experiments are conducted at equilibrium using 1.0 nM [^3 H]OT and varying the concentration of the displacing agents. The concentrations of agent displacing 50% of [^3 H]OT at its sites (IC50) are calculated by a computer assisted LUNDON-2 program (LUNDON SOFTWARE INC., Ohio, USA).

T1 sequence (Q00788 whole entry): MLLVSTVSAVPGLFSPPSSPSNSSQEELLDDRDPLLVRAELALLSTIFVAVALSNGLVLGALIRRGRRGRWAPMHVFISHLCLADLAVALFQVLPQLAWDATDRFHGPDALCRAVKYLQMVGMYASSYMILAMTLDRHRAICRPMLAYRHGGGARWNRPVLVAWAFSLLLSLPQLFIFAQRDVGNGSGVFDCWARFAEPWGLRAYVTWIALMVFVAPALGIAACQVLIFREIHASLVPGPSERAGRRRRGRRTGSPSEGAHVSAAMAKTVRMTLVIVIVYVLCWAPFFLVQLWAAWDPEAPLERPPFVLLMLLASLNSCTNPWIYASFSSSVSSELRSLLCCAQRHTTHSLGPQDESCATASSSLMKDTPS

IC50 [1]: 0.03 µM
IC50 [2]: 1.3 µM
inhibition at 10 µM (oxytocin receptors): 76%
Structure (SMILES): Cc1ccc(F)cc1C(=O)Nc1ccc(C(=O)N2CCC=Cc3sccc32)c(Cl)c1 [Example 184, N-[4-[(5,6-Dihydro-4H-thieno[3,2-b]azepin-4-yl)carbonyl]-3-chlorophenyl]-5-fluoro-2-methylbenzamide]
